Reference: US10577349B2 (Sanford Burnham Prebys Medical Discovery Institute, priority 2015, dated 2020)

Tests used:
[1] = tested on: A375; experiment: 48 h Cytotoxicity A375; type: cell-based; settings: Homo sapiens, A-375
[2] = biological target: EmCV Cap-dependent translation; experiment: In vitro translation assay, FF-EmCV-Ren construct, cap-dependent (FF luciferase); type: biochemical, rabbit reticulocyte lysates
Excerpt: (§1) The bicistronic dual-reporter constructs that contain the firefly luciferase (FF) sequence, followed by the (encephalomyocarditis virus) EmCV and Hepatitis C virus (HCV) IRES, respectively, and the Renilla reniformis (Ren) luciferase sequence, has been previously described (Bordeleau Me., et al. Functional characterization of IRESes by an inhibitor of the RNA helicase eIF4A. Nature chemical biology. 2006; 2:213-20). For measurement of translation from the FF-EmCV-Ren and FF-HCV-Ren constructs, rabbit reticulocyte lysates (RRL) (Life Technologies, Carlsbad, Calif., USA) and the Dual-Glo (Promega, Madison, Wis., USA) read-outs were chosen. Two μl rabbit reticulocyte lysates mixed with Translation Mix 20× (-Met) and Translation Mix 20× (-Leu) in a ratio of 1:1 were pre-incubated with test compounds in 1536-well plates for 1 h at room temperature. Then, translation was started by adding 0.1 μg RNA per well and incubated for 2 h at 30° C. After a short chill phase, 2.5 μl Dual-Glo reagent 1 was added to each well and incubated for 10 min before reading the FF luciferase activity with the ViewLux uHTS Microplate Imager (Perkin Elmer, Waltham, Mass., USA). Directly after, 2.5 μl Dual-Glo reagent 2 was dispensed to each well and incubated at room temperature for 10 min before reading the Ren luciferase activity on the ViewLux. To exclude the possibility that test compounds interfere with any of the luciferase activities, a counter assay was performed in which the compounds were added after the completion of the in vitro translation.

[3] = biological target: EmCV Cap-independent translation; experiment: In vitro translation assay, FF-EmCV-Ren construct, cap-independent (Ren luciferase); type: biochemical, rabbit reticulocyte lysates
Excerpt: as §1

[4] = biological target: HCV cap-dependent translation; experiment: In vitro translation assay, FF-HCV-Ren construct, cap-dependent (FF luciferase); type: biochemical, rabbit reticulocyte lysates
Excerpt: as §1

[5] = biological target: HCV cap-independent translation; experiment: In vitro translation assay, FF-HCV-Ren construct, cap-independent (Ren luciferase); type: biochemical, rabbit reticulocyte lysates
Excerpt: as §1

SMILES | IC50 [1] [µM] | IC50 [2] [µM] | IC50 [3] [µM] | IC50 [4] [µM] | IC50 [5] [µM]
O=C(/C=C/c1ccncc1)c1c(-c2ccccc2)c2cc(Cl)ccc2[nH]c1=O [Compound 28, 6-Chloro-4-phenyl-3-(3-pyridin-4-yl-acryloyl)-1H-quinolin-2-one] | < 2 | 2 to 10 | 2 to 10 | 2 to 10 | 2 to 10
Cn1c(/C=C/C(=O)c2c(-c3ccccc3)c3cc(Cl)ccc3[nH]c2=O)cc2ccccc21 [Compound 29, 6-Chloro-3-[3-(1-methyl-1H-indol-2-yl)-acryloyl]-4-phenyl-1H-quinolin-2-one] | < 2 | > 20 | > 20 | 10 to 20 | > 20
Cn1ccc2cc(/C=C/C(=O)c3c(-c4ccccc4)c4cc(Cl)ccc4[nH]c3=O)ccc21 [Compound 30, 6-Chloro-3-[3-(1-methyl-1H-indol-5-yl)-acryloyl]-4-phenyl-1H-quinolin-2-one] | 2 to 10 | > 20 | > 20 | > 20 | > 20
O=C(/C=C/c1ccccc1)c1c(-c2ccccc2)c2cc(Cl)ccc2[nH]c1=O [Compound 31, 6-Chloro-4-phenyl-3-(3-phenyl-acryloyl)-1H-quinolin-2-one] | 2 to 10 | 2 to 10 | 2 to 10 | 2 to 10 | 2 to 10
O=C(/C=C/c1cccnc1)c1c(-c2ccccc2)c2cc(Cl)ccc2[nH]c1=O [Compound 32, 6-Chloro-4-phenyl-3-(3-pyridin-3-yl-acryloyl)-1H-quinolin-2-one] | < 2 | 2 to 10 | 2 to 10 | 2 to 10 | 2 to 10
O=C(/C=C/c1ccc(Cl)cc1)c1c(-c2ccccc2)c2cc(Cl)ccc2[nH]c1=O [Compound 33, 6-Chloro-3-[3-(4-chloro-phenyl)-acryloyl]-4-phenyl-1H-quinolin-2-one] | 2 to 10 | 2 to 10 | 2 to 10 | 2 to 10 | 2 to 10
Cc1ccc(/C=C/C(=O)c2c(-c3ccccc3)c3cc(Cl)ccc3[nH]c2=O)cc1 [Compound 34, 6-Chloro-4-phenyl-3-(3-p-tolyl-acryloyl)-1H-quinolin-2-one] | 2 to 10 | 10 to 20 | 2 to 10 | 2 to 10 | 2 to 10
CN(C)c1ccc(/C=C/C(=O)c2c(-c3ccccc3)c3cc(Cl)ccc3[nH]c2=O)cc1 [Compound 35, 6-Chloro-3-[3-(4-dimethylamino-phenyl)-acryloyl]-4-phenyl-1H-quinolin-2-one] | > 20 | > 20 | > 20 | > 20 | > 20
O=C(/C=C/c1cc2ccccc2s1)c1c(-c2ccccc2)c2cc(Cl)ccc2[nH]c1=O [Compound 36, 3-(3-Benzo[b]thiophen-2-yl-acryloyl)-6-chloro-4-phenyl-1H-quinolin-2-one] | 2 to 10 | 2 to 10 | 10 to 20 | 2 to 10 | 2 to 10
O=C(/C=C/c1cncnc1)c1c(-c2ccccc2)c2cc(Cl)ccc2[nH]c1=O [Compound 37, 6-Chloro-4-phenyl-3-(3-pyrimidin-5-yl-acryloyl)-1H-quinolin-2-one] | 2 to 10 | 2 to 10 | 2 to 10 | 2 to 10 | 2 to 10
O=C(/C=C/c1ccc(C(F)(F)F)cc1)c1c(-c2ccccc2)c2cc(Cl)ccc2[nH]c1=O [Compound 39, 6-Chloro-4-phenyl-3-[3-(4-trifluoromethyl-phenyl)-acryloyl]-1H-quinolin-2-one] | 2 to 10 | 2 to 10 | 2 to 10 | 10 to 20 | 10 to 20
O=C(/C=C/c1ccc(F)c(F)c1)c1c(-c2ccccc2)c2cc(Cl)ccc2[nH]c1=O [Compound 40, 6-Chloro-3-[3-(3,4-difluoro-phenyl)-acryloyl]-4-phenyl-1H-quinolin-2-one] | < 2 | 2 to 10 | 2 to 10 | 2 to 10 | 2 to 10
O=C(/C=C/c1ccc(F)cc1F)c1c(-c2ccccc2)c2cc(Cl)ccc2[nH]c1=O [Compound 41, 6-Chloro-3-[3-(2,4-difluoro-phenyl)-acryloyl]-4-phenyl-1H-quinolin-2-one] | < 2 | 2 to 10 | 2 to 10 | 2 to 10 | 2 to 10
O=C(/C=C/c1c(F)cccc1F)c1c(-c2ccccc2)c2cc(Cl)ccc2[nH]c1=O [Compound 42, 6-Chloro-3-[3-(2,6-difluoro-phenyl)-acryloyl]-4-phenyl-1H-quinolin-2-one] | < 2 | 2 to 10 | 2 to 10 | 2 to 10 | 2 to 10
COc1ccc(/C=C/C(=O)c2c(-c3ccccc3)c3cc(Cl)ccc3[nH]c2=O)c(F)c1 [Compound 43, 6-Chloro-3-[3-(2-fluoro-4-methoxy-phenyl)-acryloyl]-4-phenyl-1H-quinolin-2-one] | < 2 | > 20 | > 20 | 2 to 10 | 2 to 10
Cn1ccnc1/C=C/C(=O)c1c(-c2ccccc2)c2cc(Cl)ccc2[nH]c1=O [Compound 45, 6-Chloro-3-[3-(1-methyl-1H-imidazol-2-yl)-acryloyl]-4-phenyl-1H-quinolin-2-one] | 2 to 10 | 2 to 10 | 2 to 10 | 10 to 20 | 2 to 10
O=C(/C=C/c1cc(Br)cs1)c1c(-c2ccccc2)c2cc(Cl)ccc2[nH]c1=O [Compound 46, 3-[3-(4-Bromo-thiophen-2-yl)-acryloyl]-6-chloro-4-phenyl-1H-quinolin-2-one] | 2 to 10 | 2 to 10 | 2 to 10 | 2 to 10 | 2 to 10
O=C(/C=C/c1ccc(Br)cn1)c1c(-c2ccccc2)c2cc(Cl)ccc2[nH]c1=O [Compound 47, 3-[3-(5-Bromo-pyridin-2-yl)-acryloyl]-6-chloro-4-phenyl-1H-quinolin-2-one] | < 2 | 2 to 10 | 2 to 10 | 2 to 10 | 2 to 10
Cc1ccc(/C=C/C(=O)c2c(-c3ccccc3)c3cc(Cl)ccc3[nH]c2=O)nc1 [Compound 48, 6-Chloro-3-[3-(5-methyl-pyridin-2-yl)-acryloyl]-4-phenyl-1H-quinolin-2-one] | 2 to 10 | 2 to 10 | 2 to 10 | 2 to 10 | 10 to 20
O=C(/C=C/c1ccc(F)cc1C(F)(F)F)c1c(-c2ccccc2)c2cc(Cl)ccc2[nH]c1=O [Compound 49, 6-Chloro-3-[3-(4-fluoro-2-trifluoromethyl-phenyl)-acryloyl]-4-phenyl-1H-quinolin-2-one] | < 2 | 2 to 10 | 2 to 10 | 2 to 10 | 2 to 10
O=C(/C=C/c1ccoc1)c1c(-c2ccccc2)c2cc(Cl)ccc2[nH]c1=O [Compound 50, 6-Chloro-3-(3-furan-3-yl-acryloyl)-4-phenyl-1H-quinolin-2-one] | < 2 | 2 to 10 | 10 to 20 | > 20 | > 20
O=C(/C=C/c1cccs1)c1c(-c2ccccc2)c2cc(Cl)ccc2[nH]c1=O [Compound 51, 6-Chloro-4-phenyl-3-(3-thiophen-2-yl-acryloyl)-1H-quinolin-2-one] | 2 to 10 | > 20 | > 20 | 10 to 20 | > 20
O=C(/C=C/c1cnccn1)c1c(-c2ccccc2)c2cc(Cl)ccc2[nH]c1=O [Compound 52, 6-Chloro-4-phenyl-3-(3-pyrazin-2-yl-acryloyl)-1H-quinolin-2-one] | 2 to 10 | 2 to 10 | 2 to 10 | 10 to 20 | 2 to 10
Cn1c(/C=C/C(=O)c2c(-c3ccccc3)c3cc(Cl)ccc3[nH]c2=O)nc2ccccc21 [Compound 53, 6-Chloro-3-[3-(1-methyl-1H-benzoimidazol-2-yl)-acryloyl]-4-phenyl-1H-quinolin-2-one] | 2 to 10 | 2 to 10 | 2 to 10 | 2 to 10 | 2 to 10
COc1ccc(Cn2c(/C=C/C(=O)c3c(-c4ccccc4)c4cc(Cl)ccc4[nH]c3=O)nc3cc(Cl)ccc32)cc1 [Compound 54, (E)-6-chloro-3-(3-(5-chloro-1-(4-methoxybenzyl)-1H-benzo[d]imidazol-2-yl)acryloyl)-4-phenylquinolin-2(1H)-one] | 2 to 10 | 2 to 10 | 2 to 10 | 2 to 10 | 2 to 10
O=C(/C=C/c1nc2ccccc2n1Cc1ccccc1)c1c(-c2ccccc2)c2cc(Cl)ccc2[nH]c1=O [Compound 55, 3-[3-(1-Benzyl-1H-benzoimidazol-2-yl)-acryloyl]-6-chloro-4-phenyl-1H-quinolin-2-one] | 2 to 10 | 2 to 10 | 2 to 10 | 2 to 10 | 2 to 10
